Experimental data as given in ChEMBL document CHEMBL5257017, “Small Molecule CXCR3 Antagonists” (J Med Chem, 2016).
Values after ≈ are worked out from the molar mass of the structure shown.

Key:
[1] = target: T1, C-X-C chemokine receptor type 3 (Homo sapiens, UniProt P49682); experiment: Displacement of [125I]-CXCL10 from CXCR3 in human PBMC cells; assay type: cell-based
T1 sequence (P49682 whole entry): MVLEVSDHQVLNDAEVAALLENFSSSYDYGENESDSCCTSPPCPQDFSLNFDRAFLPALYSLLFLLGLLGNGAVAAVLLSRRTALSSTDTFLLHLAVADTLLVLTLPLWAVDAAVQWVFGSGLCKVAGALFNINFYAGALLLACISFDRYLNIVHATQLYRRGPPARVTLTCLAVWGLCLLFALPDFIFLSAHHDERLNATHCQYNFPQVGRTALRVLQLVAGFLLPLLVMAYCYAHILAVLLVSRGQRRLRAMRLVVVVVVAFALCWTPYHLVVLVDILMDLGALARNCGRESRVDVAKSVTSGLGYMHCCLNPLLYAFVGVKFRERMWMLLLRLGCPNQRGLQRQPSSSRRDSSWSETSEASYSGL

[2] = target: Voltage-gated inwardly rectifying potassium channel KCNH2 (Homo sapiens, UniProt Q12809); experiment: Inhibition of hERG; assay type: toxicity
Chain of Voltage-gated inwardly rectifying potassium channel KCNH2 (Q12809 whole entry): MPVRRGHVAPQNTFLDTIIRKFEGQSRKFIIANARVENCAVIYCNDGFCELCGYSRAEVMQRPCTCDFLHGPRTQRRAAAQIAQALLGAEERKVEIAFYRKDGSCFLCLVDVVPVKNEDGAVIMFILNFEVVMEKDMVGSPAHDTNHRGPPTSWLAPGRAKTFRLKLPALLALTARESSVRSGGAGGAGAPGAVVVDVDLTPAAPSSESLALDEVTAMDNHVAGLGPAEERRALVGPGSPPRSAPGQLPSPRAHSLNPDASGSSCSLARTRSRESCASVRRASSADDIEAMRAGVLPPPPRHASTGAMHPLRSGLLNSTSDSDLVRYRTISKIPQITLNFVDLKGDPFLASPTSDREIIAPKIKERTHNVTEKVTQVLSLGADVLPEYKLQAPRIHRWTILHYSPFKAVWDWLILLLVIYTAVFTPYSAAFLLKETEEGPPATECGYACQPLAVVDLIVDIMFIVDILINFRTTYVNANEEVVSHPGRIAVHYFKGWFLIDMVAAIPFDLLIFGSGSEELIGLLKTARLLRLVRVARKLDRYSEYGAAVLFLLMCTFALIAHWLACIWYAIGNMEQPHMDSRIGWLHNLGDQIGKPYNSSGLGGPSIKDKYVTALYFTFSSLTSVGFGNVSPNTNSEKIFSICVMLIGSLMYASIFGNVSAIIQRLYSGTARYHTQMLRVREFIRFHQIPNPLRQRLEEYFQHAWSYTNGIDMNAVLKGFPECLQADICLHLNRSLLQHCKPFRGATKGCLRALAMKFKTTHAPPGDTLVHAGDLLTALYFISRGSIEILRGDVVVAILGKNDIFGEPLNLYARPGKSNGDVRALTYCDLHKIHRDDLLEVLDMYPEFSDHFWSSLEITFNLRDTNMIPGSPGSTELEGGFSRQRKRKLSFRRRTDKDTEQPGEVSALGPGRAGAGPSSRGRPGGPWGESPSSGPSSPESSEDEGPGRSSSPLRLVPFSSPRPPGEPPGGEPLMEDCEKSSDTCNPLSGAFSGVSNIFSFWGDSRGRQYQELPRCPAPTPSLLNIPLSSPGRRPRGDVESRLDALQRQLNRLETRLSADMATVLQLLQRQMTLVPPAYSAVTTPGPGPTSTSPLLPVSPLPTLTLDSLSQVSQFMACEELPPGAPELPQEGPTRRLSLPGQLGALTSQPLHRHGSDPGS

[3] = target: T1, C-X-C chemokine receptor type 3; experiment: Antagonist activity at CXCR3 (unknown origin) assessed as reduction in CXCL11 induced calcium flux by FLIPR method
[4] = AUC in rat at 10 mg/kg, po; assay type: ADME, organism-based; parameters: dose 10 mg/kg, route po; settings: in vivo
[5] = target: C-X-C chemokine receptor type 3 (Homo sapiens) (UniProt P49682); experiment: Inhibition of CXCR3 at 20 to 50 uM relative to control
[6] = AUC in mouse at 10 mg/kg, po; assay type: ADME, organism-based; parameters: dose 10 mg/kg, route po; settings: in vivo
[7] = target: T1, C-X-C chemokine receptor type 3; experiment: Antagonist activity at human CXCR3 assessed as reduction in CXCL11 induced calcium flux by [35S]GTPgammaS binding assay
[8] = Lipophilicity, logD of compound at pH 7.4; assay type: physicochemical; settings: buffer
[9] = Intrinsic clearance in mouse liver microsomes; assay type: ADME, Microsome
[10] = target: T1, C-X-C chemokine receptor type 3; experiment: Displacement of [125I]-CXCL10 from CXCR3 in human PBMC cells by scintillation proximity assay; assay type: cell-based
[11] = Half life in rat at 2.0 mg/kg, po or 0.5 mg/kg, iv; assay type: ADME, organism-based; settings: in vivo
[12] = target: T2, hERG (KCNH2) (Homo sapiens, UniProt Q12809); experiment: Inhibition of hERG at 3 uM relative to control; assay type: toxicity
T2 sequence (Q12809 whole entry): as above

[13] = target: T1, C-X-C chemokine receptor type 3; experiment: Antagonist activity at CXCR3 (unknown origin) assessed as reduction in CXCL10 induced calcium flux by flow cytometry
[14] = target: T1, C-X-C chemokine receptor type 3; experiment: Antagonist activity at CXCR3 (unknown origin) assessed as reduction in CXCL10 induced calcium flux by [35S]GTPgammaS binding assay
[15] = target: T1, C-X-C chemokine receptor type 3; experiment: Antagonist activity at CXCR3 (unknown origin) assessed as reduction in CXCL10 induced calcium flux by FLIPR method
[16] = target: T1, C-X-C chemokine receptor type 3; experiment: Antagonist activity at CXCR3 (unknown origin)
[17] = target: T3, C-X-C chemokine receptor type 2 (Homo sapiens, UniProt P25025); experiment: Antagonist activity at CXCR2 (unknown origin)
T3 sequence (P25025 whole entry): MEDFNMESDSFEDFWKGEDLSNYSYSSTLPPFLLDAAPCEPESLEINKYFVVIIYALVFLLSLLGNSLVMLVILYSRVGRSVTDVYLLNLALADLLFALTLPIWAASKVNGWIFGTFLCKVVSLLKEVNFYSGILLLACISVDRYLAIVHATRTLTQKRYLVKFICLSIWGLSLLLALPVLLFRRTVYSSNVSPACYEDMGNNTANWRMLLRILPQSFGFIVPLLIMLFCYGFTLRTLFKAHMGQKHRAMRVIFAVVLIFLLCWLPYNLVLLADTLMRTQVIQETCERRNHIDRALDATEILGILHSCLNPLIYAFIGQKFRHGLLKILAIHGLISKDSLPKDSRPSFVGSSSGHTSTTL

[18] = target: C-C chemokine receptor type 4 (Homo sapiens) (UniProt P51679); experiment: Antagonist activity at CCR4 (unknown origin)
Chain of C-C chemokine receptor type 4 (Homo sapiens) (P51679 whole entry, looked up): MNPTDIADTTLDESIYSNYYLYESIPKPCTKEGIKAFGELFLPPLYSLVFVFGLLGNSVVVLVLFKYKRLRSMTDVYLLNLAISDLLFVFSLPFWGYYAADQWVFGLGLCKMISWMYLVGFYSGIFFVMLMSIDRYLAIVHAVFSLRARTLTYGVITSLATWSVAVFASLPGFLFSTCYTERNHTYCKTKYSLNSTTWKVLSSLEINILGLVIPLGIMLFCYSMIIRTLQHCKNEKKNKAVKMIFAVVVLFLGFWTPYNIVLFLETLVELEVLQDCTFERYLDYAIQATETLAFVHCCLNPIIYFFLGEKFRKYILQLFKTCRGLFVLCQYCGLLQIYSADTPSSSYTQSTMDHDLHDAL

[19] = target: C-C chemokine receptor type 6 (Homo sapiens) (UniProt P51684); experiment: Antagonist activity at CCR6 (unknown origin)
Chain of C-C chemokine receptor type 6 (Homo sapiens) (P51684 whole entry, looked up): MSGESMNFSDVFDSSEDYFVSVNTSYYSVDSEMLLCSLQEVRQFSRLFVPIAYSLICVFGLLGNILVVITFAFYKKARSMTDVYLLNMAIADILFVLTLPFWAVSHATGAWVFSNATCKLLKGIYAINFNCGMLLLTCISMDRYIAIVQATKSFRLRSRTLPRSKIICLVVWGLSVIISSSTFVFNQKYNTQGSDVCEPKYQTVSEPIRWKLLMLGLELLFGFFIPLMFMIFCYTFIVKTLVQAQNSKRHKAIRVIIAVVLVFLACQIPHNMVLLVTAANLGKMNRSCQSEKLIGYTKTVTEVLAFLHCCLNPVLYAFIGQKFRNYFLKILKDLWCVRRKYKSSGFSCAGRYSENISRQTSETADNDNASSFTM

[20] = target: C-C chemokine receptor type 7 (Homo sapiens) (UniProt P32248); experiment: Antagonist activity at CCR7 (unknown origin)
Chain of C-C chemokine receptor type 7 (Homo sapiens) (P32248 whole entry, looked up): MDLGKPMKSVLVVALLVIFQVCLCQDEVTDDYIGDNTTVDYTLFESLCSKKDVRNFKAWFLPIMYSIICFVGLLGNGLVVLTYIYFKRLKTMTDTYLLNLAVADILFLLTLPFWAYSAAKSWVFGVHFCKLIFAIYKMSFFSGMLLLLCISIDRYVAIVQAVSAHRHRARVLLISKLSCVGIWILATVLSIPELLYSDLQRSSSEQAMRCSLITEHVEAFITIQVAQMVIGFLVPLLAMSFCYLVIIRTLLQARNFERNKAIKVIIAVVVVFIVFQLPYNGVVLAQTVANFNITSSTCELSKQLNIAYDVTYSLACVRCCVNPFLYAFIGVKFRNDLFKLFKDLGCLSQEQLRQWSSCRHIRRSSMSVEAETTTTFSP

[21] = target: T4, C-X-C chemokine receptor type 3 (Mus musculus, UniProt O88410); experiment: […] of CXCR3 receptor internalization in mouse whole blood in presence of CXCl10 by flow cytometry; assay type: tissue-based
T4 sequence (O88410 whole entry): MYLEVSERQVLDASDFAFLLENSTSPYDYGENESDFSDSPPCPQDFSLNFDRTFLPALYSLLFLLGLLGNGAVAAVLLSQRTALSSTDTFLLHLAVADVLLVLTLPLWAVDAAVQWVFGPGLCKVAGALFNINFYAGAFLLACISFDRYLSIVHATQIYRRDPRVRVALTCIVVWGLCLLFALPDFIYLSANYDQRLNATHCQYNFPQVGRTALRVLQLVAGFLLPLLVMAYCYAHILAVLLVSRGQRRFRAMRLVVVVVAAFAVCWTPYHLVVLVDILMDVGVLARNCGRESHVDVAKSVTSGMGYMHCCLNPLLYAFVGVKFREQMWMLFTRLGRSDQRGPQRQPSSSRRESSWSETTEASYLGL

[22] = Clearance in rat at 10 mg/kg, po or 0.2 mg/kg, iv; assay type: ADME, organism-based; settings: in vivo
[23] = Volume of distribution in mouse at 10 mg/kg. po or 0.2 mg/kg, iv; assay type: ADME, organism-based; settings: in vivo
[24] = target: T1, C-X-C chemokine receptor type 3; experiment: Antagonist activity at CXCR3 (unknown origin) assessed as reduction in CXCL11 induced calcium flux by flow cytometry
[25] = target: T2, hERG (KCNH2); experiment: Inhibition of hERG at 10 uM relative to control; assay type: toxicity
[26] = Solubility of compound; assay type: physicochemical
[27] = Clearance in mouse at 30 mg/kg, po; assay type: ADME, organism-based; settings: in vivo
[28] = Oral bioavailability in mouse at 30 mg/kg; assay type: ADME, organism-based; settings: in vivo
[29] = AUC in rat at 2 mg/kg, po; assay type: ADME, organism-based; parameters: dose 2 mg/kg, route po; settings: in vivo
[30] = Oral bioavailability in mouse at 10 mg/kg; assay type: ADME, organism-based; settings: in vivo
[31] = Clearance in rat at 10 mg/kg, po or 5 mg/kg, iv; assay type: ADME, organism-based; settings: in vivo
[32] = Half life in mouse at 10 mg/kg, po or 5 mg/kg, iv; assay type: ADME, organism-based; settings: in vivo

CC[C@H](C)C[C@H](C)C[C@H](C)[C@@H](O[C@@H]1O[C@H](COC(C)=O)[C@@H](O)[C@@H](O)[C@@H]1O)[C@@H](C)/C=C(\C)[C@@H](O)[C@@H](C)/C=C(\C)[C@@H](O)[C@@H](C)/C=C(\C)C(=O)OC[C@@H](O)[C@H](O)[C@H](O)CO
IC50 [1]: 15800 nM

O=C(Cn1c(=O)[nH]c2ccccc21)N1CCN(c2ncc(Cl)cc2-c2cnc(N3CCC(O)CC3)nc2)CC1
IC50 [2]: 31600 nM

N=C(Nc1ccc(I)cc1)NC1C2CC3CC(C2)CC1C3 (stereo not drawn)
Ki [1]: 158 nM

C[C@@H]1CC[C@@]2(OC1)OC1CC3C4CC=C5[C@@H](O[C@@H]6O[C@H](CO)[C@@H](O[C@H]7O[C@H](C)[C@@H](O)[C@H](O)[C@@H]7O)[C@@H](O)[C@H]6O[C@H]6O[C@@H](C)[C@@H](O)[C@H](O)[C@@H]6O)CCC[C@]5(C)C4CC[C@]3(C)C1[C@@H]2C (stereo partly drawn)
IC50 [1]: 501 nM

COc1cc(CN(C[C@H]2CC[C@H](C(=O)O)CC2)[C@H]2CCc3cc(Cl)ccc32)ccc1OCCN1C(=O)CCC1=O
IC50 [1]: 12.6 nM

CCN(CC)C(=O)[C@@H]1C=C2C3C=CCc4[nH]cc(c43)C[C@H]2N(C(=O)Nc2ccccc2)C1 (stereo partly drawn)
IC50 [3]: 20 nM
IC50 [1]: 50.1 nM

CCNC(=O)c1cnc(N2CCN(C3CCN(Cc4ccc(Cl)cc4F)CC3)[C@@H](CC)C2)c(Cl)c1
Ki [1]: 0.316 nM
AUC [4]: 0.95 µM·h

N#Cc1ccc(CN2CCC(N3CCN(c4ncc(C(=O)NCCOc5ccccc5)cc4Cl)CC3)CC2)cc1
Ki [1]: 100 nM

Cc1ccc(C(=O)N2CCN(CC(=O)Nc3cc(-c4ccccc4)sc3C(N)=O)CC2)cc1
inhibition at 50 µM [5]: 50%

CC[C@H]1CN(c2nc(N)c(C(N)=O)nc2Cl)CCN1C1CCN(Cc2ccc(Cl)cc2)CC1
Ki [1]: 0.794 nM
AUC [6]: 5.1 µM·h

CC1(C)[C@H]2CC=C(CN3CCC(Nc4nc(-c5cc(C(F)(F)F)cc(C(F)(F)F)c5)ns4)CC3)[C@@H]1C2
Ki [7]: 251 nM
logD [8]: 5
CLH [9]: 0.016 mL/min/kg

C[C@H](c1nc2ncccc2c(=O)n1-c1ccc(Cl)cc1)N(CC1CCS(=O)(=O)CC1)C(=O)Cc1ccc(F)c(C(F)(F)F)c1
IC50 [10]: 6.31 nM
IC50 [3]: 5.01 nM
half-life [11]: 4 h

CC[C@H]1CN(c2ncc(C(N)=O)nc2C)CCN1C1CCN(Cc2ccc(Cl)nc2N)CC1
inhibition at 3 µM [12]: 0%

CC(=O)Nc1cccc(/C(C)=N\NC(=O)c2ccc(CN(Cc3ccccc3)S(=O)(=O)c3ccc(Cl)cc3)cc2)c1
IC50 [13]: 501 nM
IC50 [14]: 100 nM
Ki [3]: 200 nM
Ki [15]: 6500 nM

CC(=O)c1nc2ccccc2n1CC(=O)c1ccc([N+](=O)[O-])cc1
IC50 [1]: 3160 nM

Cc1ccc(C(Nc2c(Nc3cccc(C(=O)N(C)C)c3O)c(=O)c2=O)C2(C)CCCO2)o1 (stereo not drawn)
IC50 [16]: 1.26 nM
IC50 [17]: 63.1 nM
IC50 [18]: 398 nM
IC50 [19]: 2 nM
IC50 [20]: 7.94 nM

C[C@H]1CN(c2scnc2-c2nc3ccccc3[nH]2)CCN1C(=O)Cn1ccc2cccnc21
IC50 [21]: 398 nM

O=C(Nc1ccc2ccccc2c1)NC1CCN(CC2=CCCCCC2)CC1
Ki [7]: 100 nM

N#Cc1ccc(S(=O)(=O)N(Cc2ccc(-c3nnn[nH]3)c(F)c2)Cc2ccccc2F)cc1
IC50 [13]: 200 nM
clearance [22]: 28.3 mL/min/kg
Vd [23]: 1 L/kg

CCNC(=O)N1CCCN(c2ccc(C(=O)NCCc3ccc(Cl)cc3Cl)cc2NC(=O)c2cccc(Cl)c2)CC1
pIC50 [24]: 7
IC50 [3]: 63.1 nM

CCNc1nnc(-c2cnc(N3C[C@H](CC)N(C4CCN(Cc5ccc(Cl)cc5)CC4)C[C@H]3C)c(C)n2)o1
inhibition at 10 µM [25]: 25%

CCNC(=O)N1CCCN(c2ccc(C(=O)NC(C)C)cc2NC(=O)c2cccc(Cl)c2)CC1
IC50 [3]: 2000 nM

CCCCCCCCCC(=O)N(CCN(C)C)C(C)c1nc2ccccc2c(=O)n1-c1ccc(F)cc1 (stereo not drawn)
IC50 [3]: 398 nM

CC(=O)N1C2C=C(CN3[C@@H]4CC[C@H]3C[C@H](NC(=O)Nc3cc(F)cc(C(F)(F)F)c3)C4)CC1CCC2
Ki [7]: 6.31 nM
solubility [26]: 40 µg/mL (≈ 78.7 µM)
logD [8]: 3.1

CC(=O)N1C2C=C(CN3[C@@H]4CC[C@H]3C[C@H](Nc3ccc5ccc(OC(C)C)cc5n3)C4)CC1CCC2
logD [8]: 2.9
CLint [9]: 9 µL/min/mg
CL/F [27]: 9 mL/min/kg
bioavailability [28]: 69%

CNc1ncc(-c2cc(C(F)(F)F)ccc2N2CCN(C(=O)Cn3nc(C)cc3C)CC2)cn1
AUC [29]: 271 ng·h/mL

C[C@H](c1nc2ncccc2c(=O)n1-c1ccc(Cl)cc1)N(CC1CCS(=O)(=O)CC1)C(=O)Cc1ccc(C(F)(F)F)c(F)c1
IC50 [10]: 6.31 nM

Cc1cccc2c1n(C)c(=N)n2CC(=O)c1ccc(Cl)cc1
bioavailability [30]: 57%
clearance [31]: 95 mL/min/kg
half-life [32]: 4.9 h

O=C(Nc1ccccc1)N1CCCC(c2ccccc2)(C2CCN(Cc3ccc(Br)cc3)CC2)C1 (stereo not drawn)
IC50 [14]: 31.6 nM
